{
  "source": "paper PMC10449621",
  "about": "“Engineering cellular communication between light-activated synthetic cells and bacteria” (Nature Chemical Biology, 2023)",
  "system": "BjaRWT (B0034|CTG) receiver cells",
  "test": "BjaR receiver cell AHSL dose-response (gfp reporter, plate reader)",
  "type": "cell-based, E. coli XL10-Gold",
  "description": "These findings are consistent with the predicted translation initiation rates of the respective sequences—translation from the BBa_B0033 RBS provides 1% of protein yield compared to the BBa_B0034 RBS, just as an CTG start codon provides 1% of the protein yield compared to an ATG start codon[30],[31]. This also offers support as to why the ON-state gfp expression level increased in variants with a tighter OFF-state; more cellular resources were available for GFP synthesis when comparatively fewer were allocated to BjaR synthesis. To elucidate the impact of the S107R variant on gene circuit performance, we introduced the S107R variant alone back into the bjaRWT gene, in the context of the BBa_B0033 RBS background.\nThe BjaR reporter plasmids were retransformed into E. coli XL10-Gold cells for each experiment. A single colony was used to inoculate 5 ml LB + Amp media and incubated at 37 °C, 225 r.p.m. overnight. Overnight cultures were diluted 1/250 or 1/500 in 5 ml M9 minimal media + Amp and incubated at 37 °C, 225 r.p.m. for 3 h and 45 min (until OD600 = ~0.075). Cultures were diluted down to OD600 = 0.05 with M9 minimal media + Amp, and 200 µl was added to wells of a 96-well plate containing 1 µl IV-HSL dissolved in DMSO or 1 µl BjaI CFPS reactions (IV-HSL concentrations obtained from serial dilution from 63.2 µM to 632 pM; final DMSO concentration = 0.5%). Cells were incubated at 37 °C, 800 r.p.m., in a thermomixer with a heated lid for 4 h. Fluorescence and OD600 were measured in a Tecan M1000 infinite plate reader (excitation, 488 nm; emission, 510 nm; bandwidth, 5 nm; gain, 101 and z position, 21,311 µm). The dose–response curves were fitted to the function indicated by Eq. (1), where a = maximal fluorescence output, b = basal fluorescence output, X = concentration of AHSL, GFP = fluorescence at the given condition, EC50 = AHSL at 50% maximal fluorescence output and h = hill coefficient. EC50 and h were derived using the nonlinear regression model based on Eq. (1), in MATLAB. A summary of the dose–response data is available in Supplementary Table 1.1 GFP=b+a−b/1+10^logEC50−X×h",
  "note": "Values joined by “and” are separate entries in the source; they are usually repeats but may differ in a detail not shown here. Equal values may be shown once.",
  "data": [
    {"smiles": "CC(C)CC(=O)N[C@H]1CCOC1=O", "note": "[IV-HSL, N-isovaleryl-L-homoserine lactone]", "values": [
      {"measurement": "EC50", "setting": "Escherichia coli, IV-HSL-activated gfp expression", "value": "2.68 ± 0.48", "unit": "nM"},
      {"measurement": "hill coefficient", "setting": "IV-HSL dose-response curve", "value": 1.41},
      {"measurement": "GFP", "setting": "Log([ASHL]) -6.5", "value": "43330 and 36104 and 38058"},
      {"measurement": "Mean normalised fluorescence", "setting": "Log([ASHL]) -6.5", "value": 201726},
      {"measurement": "Normalised fluorescence", "setting": "Log([ASHL]) -6.5", "value": "210214 and 194525 and 200438"},
      {"measurement": "GFP", "setting": "Log([ASHL]) -7", "value": "48602 and 34441 and 36003"},
      {"measurement": "Mean normalised fluorescence", "setting": "Log([ASHL]) -7", "value": 195635},
      {"measurement": "Normalised fluorescence", "setting": "Log([ASHL]) -7", "value": "221814 and 183269 and 181822"},
      {"measurement": "GFP", "setting": "Log([ASHL]) -7.5", "value": "42248 and 34562 and 36913"},
      {"measurement": "Mean normalised fluorescence", "setting": "Log([ASHL]) -7.5", "value": 179671},
      {"measurement": "Normalised fluorescence", "setting": "Log([ASHL]) -7.5", "value": "188397 and 176029 and 174588"},
      {"measurement": "GFP", "setting": "Log([ASHL]) -8", "value": "35155 and 35886 and 43108"},
      {"measurement": "Mean normalised fluorescence", "setting": "Log([ASHL]) -8", "value": 165401},
      {"measurement": "Normalised fluorescence", "setting": "Log([ASHL]) -8", "value": "168235 and 168127 and 159840"},
      {"measurement": "GFP", "setting": "Log([ASHL]) -8.5", "value": "36208 and 37675 and 33945"},
      {"measurement": "Mean normalised fluorescence", "setting": "Log([ASHL]) -8.5", "value": 139606},
      {"measurement": "Normalised fluorescence", "setting": "Log([ASHL]) -8.5", "value": "151871 and 150220 and 116729"},
      {"measurement": "Mean normalised fluorescence", "setting": "Log([ASHL]) -9", "value": 82973.4},
      {"measurement": "Mean normalised fluorescence", "setting": "Log([ASHL]) -9.5", "value": 25740.3},
      {"measurement": "Mean normalised fluorescence", "setting": "Log([ASHL]) -10", "value": 6739.8},
      {"measurement": "GFP", "setting": "Log([ASHL]) -10.5", "value": "896 and 846 and 722"},
      {"measurement": "Mean normalised fluorescence", "setting": "Log([ASHL]) -10.5", "value": 2692.26},
      {"measurement": "Normalised fluorescence", "setting": "Log([ASHL]) -10.5", "value": "2989.77 and 2763.44 and 2323.58"},
      {"measurement": "GFP", "setting": "Log([ASHL]) -11", "value": "668 and 631 and 690"},
      {"measurement": "Mean normalised fluorescence", "setting": "Log([ASHL]) -11", "value": 2167.6},
      {"measurement": "Normalised fluorescence", "setting": "Log([ASHL]) -11", "value": "2233.16 and 2007.95 and 2261.7"},
      {"measurement": "GFP", "setting": "Log([ASHL]) -11.5", "value": "630 and 671 and 595"},
      {"measurement": "Mean normalised fluorescence", "setting": "Log([ASHL]) -11.5", "value": 2035.58},
      {"measurement": "Normalised fluorescence", "setting": "Log([ASHL]) -11.5", "value": "2037.65 and 2202.61 and 1866.48"}
    ]}
  ]
}
